Laboratory results: patent US4038404A, “1,2,4-Triazole antimycotic compositions and use thereof” (Bayer Aktiengesellschaft, priority 1972, dated 1977)
Converted amounts (≈) assume the structure as drawn. Where two headings read alike, the source gives them in different places.

How the values were obtained:
[1] = tested on: Aspergillus niger; assay: Series dilution test in vitro, Aspergillus niger; type: cell-based; details: for MIC: Aspergillus niger, read-out: Minimum inhibitory concentration (MIC)
Protocol: (§1) 1. DETERMINATION OF THE ANTI-MYCOTIC ACTION SPECTRUM IN VITRO BY THE SERIES DILUTION TEST.
(§2) Description of the Experiment
(§3) The nutrient substrates used were Sabourauds' milieu d'epreuve for dermatophytes and mould fungi and meat broth-glucose bouillon for blastomyces and biphase fungi. The incubation temperature was 28° C. and the incubation time was 24 to 96 hours.

[2] = tested on: Candida albicans; assay: Candidosis of mice; type: in vivo, Mice of Type SPF-CF1; details: 2 × 100 mg/kg orally, one hour before and seven hours after infection, survivors on 6th day
Protocol: as §2
Mice of Type SPF-CF1 were intravenously infected with 1-2 × 10^6 logarithmically growing Candida cells suspended in physiological sodium chloride solution.
One hour before and seven hours after infection the animals were treated orally with 2 × 100 mg of the preparations/kg of body weight.
Untreated animals died of the infection 3 to 6 days after infection. The survival rate on the 6th day after infection was about 5% in the case of untreated control animals.

[3] = tested on: Microsporon felineum; assay: Series dilution test in vitro, Microsporon felineum; type: cell-based; details: 28° C., 24 to 96 hours; read-out: Minimum inhibitory concentration (MIC)
Protocol: as §1, §2, §3

[4] = tested on: Penicillium commune; assay: Series dilution test in vitro, Penicillium commune; type: cell-based; details: read-out: Minimum inhibitory concentration (MIC)
Protocol: as §1, §2, §3

[5] = tested on: Candida albicans; assay: Series dilution test in vitro, Candida albicans; type: cell-based
Protocol: as §1, §2, §3

[6] = tested on: Trichophyton mentagrophytes; assay: Series dilution test in vitro, Trichophyton mentagrophytes; type: cell-based; details: for MIC: Trichophyton mentagrophytes, read-out: Minimum inhibitory concentration (MIC)
Protocol: as §1, §2, §3

[7] = tested on: Trichophyton mentagrophytes; assay: Oral administration on Quinckeanum trichophytosis of white mice; type: in vivo; design: key to the marks not given beside the values; details: 100 mg/kg orally twice daily up to the eighth day of the infection
Protocol: b. Action, on Oral Administration, on Quinckeanum Trichophytosis of White Mice
It was possible to suppress the development of the Quinckeanum infection in mice with doses of 100 mg/kg of body weight given orally twice daily up to the eighth day of the infection.

[8] = tested on: Trichophyton mentagrophytes; assay: Topical application in experimental trichophytosis of guinea pigs; type: in vivo; design: key to the marks not given beside the values; details: 1% strength solution applied locally for 11 to 14 days
Excerpt: a. Topical Application in Experimental Trichophytosis of Guinea Pigs (Pathogen: Trichophyton metagrophytes)
as §2
A 1% strength solution of the active compounds in a dimethylsulphoxide/glycerine/water mixture (1:3:6) or in polyethylene glycol 400 was applied locally for 11 to 14 days after the trichophytosis had been produced experimentally.

[9] = n.s. (no serum added), 28° C., 24 to 96 hours
[10] = w.s. (with 30% serum added), 28° C., 24 to 96 hours
[11] = n.s. (no serum added), 28° C., 24 to 96 hours, read-out: Minimum inhibitory concentration (MIC)
[12] = w.s. (with 30% serum added), 28° C., 24 to 96 hours, read-out: Minimum inhibitory concentration (MIC)
[13] = n.s. (no serum added), * = 90% inhibition of growth
[14] = w.s. (with 30% serum added), * = 90% inhibition of growth
[15] = n.s. (no serum added), * = 90% inhibition of growth, read-out: Minimum inhibitory concentration (MIC)

With CC(C)(C)C(=O)C(Oc1ccc(Cl)cc1Cl)n1cncn1 (stereo not shown) [Example 1, 1-[(2',4'-dichloro)-phenoxy]-1-[1',2', 4'-triazolyl-(1')]-3,3-dimethyl-butan-2-one] as the molecule, how does the MIC [1, 9] read?
The MIC was 100 µg/mL (≈ 305 µM).

What about the MIC [1, 10] of the same molecule?
The MIC was 100 µg/mL (≈ 305 µM).

And the “Action against Candida albicans” value [2]?
The value was “+ (50% survivors on the 6th day after infection)”.

And the MIC [3]?
Its MIC is 100 µg/mL (≈ 305 µM).

And the MIC ([4]; 28° C., 24 to 96 hours)?
The MIC was > 100 µg/mL.

And the MIC [5, 11]?
Its MIC is 40 µg/mL (≈ 122 µM).

And the MIC [5, 12]?
The MIC was 40 µg/mL (≈ 122 µM).

What about the MIC [6, 9] of the same molecule?
Its MIC is 4 µg/mL (≈ 12.2 µM).

And the MIC [6, 10]?
The MIC was 4 µg/mL (≈ 12.2 µM).

How did the MIC [1, 9] turn out when CC(C)(C)C(=O)C(Oc1ccc(Cl)cc1)(c1ccccc1)n1cncn1 (stereo not shown) [Example 5, 1-[(4'-chlorophenoxy)]-1-[phenyl]-1-[1',2',4'triazolyl-(1')]-3,3-dimethyl-butan-2-one] was run?
Its MIC is > 64 µg/mL.

What about the MIC [1, 10] of the same molecule?
Its MIC is > 64 µg/mL.

What about the MIC [3] of the same molecule?
The MIC was > 64 µg/mL.

And the MIC ([4]; 28° C., 24 to 96 hours)?
The MIC was > 64 µg/mL.

What about the MIC [5, 11] of the same molecule?
The MIC was > 64 µg/mL.

What about the MIC [6, 13] of the same molecule?
Its MIC is 1 µg/mL (≈ 2.7 µM).

What about the MIC [6, 14] of the same molecule?
Its MIC is 32 µg/mL (≈ 86.5 µM).

How did the MIC [1, 9] turn out when O=C(c1ccc(Cl)cc1)C(Oc1ccc(Cl)cc1Cl)n1cncn1 (stereo not shown) [Example 6] was run?
Its MIC is 100 µg/mL (≈ 261 µM).

And the MIC [1, 10]?
Its MIC is > 100 µg/mL.

What about the “Action against Candida albicans” value [2] of the same molecule?
The value was “+ (50% survivors on the 6th day after infection)”.

What about the MIC [3] of the same molecule?
Its MIC is 40 µg/mL (≈ 105 µM).

And the MIC ([4]; 28° C., 24 to 96 hours)?
The MIC was > 100 µg/mL.

What about the MIC [5, 15] of the same molecule?
Its MIC is 10 µg/mL (≈ 26.1 µM).

What about the MIC ([5]; w.s. (with 30% serum added), * = 90% inhibition of growth, read-out: Minimum inhibitory concentration (MIC)) of the same molecule?
The MIC was 100 µg/mL (≈ 261 µM).

And the MIC [6, 13]?
The MIC was 4 µg/mL (≈ 10.5 µM).

And the MIC [6, 14]?
Its MIC is 10 µg/mL (≈ 26.1 µM).

With CC(C)(C)C(=O)C(Oc1ccc(F)cc1)n1cncn1 (stereo not shown) [Example 9] as the molecule, how does the “Action against Candida albicans” value [2] read?
Its value is “++ (60-80% survivors on the 6th day after infection)”.

What about the MIC ([4]; 28° C., 24 to 96 hours) of the same molecule?
The MIC was > 64 µg/mL.

What about the MIC [5, 11] of the same molecule?
The MIC was 100 µg/mL (≈ 361 µM).

And the MIC [5, 12]?
Its MIC is > 64 µg/mL.

And the MIC [6, 9]?
The MIC was 8 µg/mL (≈ 28.8 µM).

What about the MIC [6, 10] of the same molecule?
The MIC was 32 µg/mL (≈ 115 µM).

Which “Oral action against Trichophyton mentagrophytes” value [7] does the source give for CC(C)(C)C(=O)C(Oc1ccc(-c2ccccc2)cc1)n1cncn1 (stereo not shown) [Example 12] here?
The value was “++”.

What about the MIC [1, 13] of the same molecule?
Its MIC is 40 µg/mL (≈ 119 µM).

And the MIC [1, 10]?
The MIC was 100 µg/mL (≈ 298 µM).

And the “Action against Candida albicans” value [2]?
Its value is “+ (50% survivors on the 6th day after infection)”.

What about the MIC [3] of the same molecule?
Its MIC is 40 µg/mL (≈ 119 µM).

And the “Action against Trichophyton mentagrophytes” value [8]?
The value was “++++”.

And the MIC ([4]; * = 90% inhibition of growth)?
The MIC was 100 µg/mL (≈ 298 µM).

What about the MIC [5, 15] of the same molecule?
The MIC was 100 µg/mL (≈ 298 µM).

What about the MIC [5, 12] of the same molecule?
Its MIC is 100 µg/mL (≈ 298 µM).

What about the MIC [6, 9] of the same molecule?
Its MIC is < 1 µg/mL.

What about the MIC [6, 10] of the same molecule?
Its MIC is < 1 µg/mL.

For CC(C)(C)C(=O)C(Oc1ccccc1)n1cncn1 (stereo not shown) [Example 15], which MIC ([4]; 28° C., 24 to 96 hours) is on record?
The MIC was > 64 µg/mL.

And the MIC [5, 11]?
Its MIC is > 64 µg/mL.

And the MIC [6, 9]?
Its MIC is 32 µg/mL (≈ 123 µM).

And the MIC [6, 10]?
Its MIC is 32 µg/mL (≈ 123 µM).

For Cc1ccc(OC(C(=O)C(C)(C)C)n2cncn2)cc1C (stereo not shown) [Example 17], which MIC ([4]; 28° C., 24 to 96 hours) is on record?
The MIC was > 64 µg/mL.

And the MIC [5, 15]?
Its MIC is 64 µg/mL (≈ 223 µM).

And the MIC [5, 12]?
Its MIC is > 64 µg/mL.

And the MIC [6, 9]?
Its MIC is 32 µg/mL (≈ 111 µM).

What about the MIC [6, 10] of the same molecule?
Its MIC is > 64 µg/mL.

For CC(C)(C)C(=O)C(Oc1cc(Cl)c(Cl)cc1Cl)n1cncn1 (stereo not shown) [Example 20], which MIC ([4]; 28° C., 24 to 96 hours) is on record?
Its MIC is > 64 µg/mL.

And the MIC [5, 11]?
Its MIC is > 64 µg/mL.

And the MIC [6, 9]?
The MIC was 32 µg/mL (≈ 88.2 µM).

What about the MIC [6, 10] of the same molecule?
Its MIC is > 64 µg/mL.

What does the source list for CC(C)(C)C(=O)C(Oc1ccc(Cl)cc1Cl)(c1ccccc1)n1cncn1 (stereo not shown) [Example 21]?
MIC ([4]; 28° C., 24 to 96 hours): > 64 µg/mL; MIC [5, 11]: > 64 µg/mL; MIC [5, 12]: > 64 µg/mL; MIC [6, 9]: 8 µg/mL (≈ 19.8 µM); MIC [6, 10]: 64 µg/mL (≈ 158 µM)

Which “Oral action against Trichophyton quinckeanum” value [7] does the source give for CC(C)(C)C(=O)C(Oc1ccc(Cl)cc1)n1cncn1 (stereo not shown) [Example 27] here?
The value was “++++”.

What about the MIC [1] of the same molecule?
The MIC was 100 µg/mL (≈ 340 µM).

And the “Minimum inhibitory concentration (MIC)” value [1, 10]?
Its value is 100 µg/mL (≈ 340 µM).

What about the “Action against Candida albicans” value [2] of the same molecule?
Its value is “++++ (>80% survivors on the 6th day after infection)”.

And the “Action against Trichophyton mentagrophytes” value [8]?
The value was “++”.

What about the MIC [4] of the same molecule?
Its MIC is > 100 µg/mL.

And the MIC ([5]; read-out: Minimum inhibitory concentration (MIC), n.s. (no serum added), 28° C., 24 to 96 hours)?
Its MIC is 40 µg/mL (≈ 136 µM).

What about the MIC ([5]; read-out: Minimum inhibitory concentration (MIC), w.s. (with 30% serum added), 28° C., 24 to 96 hours) of the same molecule?
Its MIC is 100 µg/mL (≈ 340 µM).

And the MIC [6]?
The MIC was 4 µg/mL (≈ 13.6 µM).

What about the “Minimum inhibitory concentration (MIC)” value [6, 10] of the same molecule?
Its value is 4 µg/mL (≈ 13.6 µM).
